Measurements from patent US11142515B2, “Pyrazolyl-ureas as kinase inhibitors” (RESPIVERT LIMITED, priority 2014, dated 2021).
Values belong to the compound of their own block, whether it stands above or below them.

What was measured:
[1] = target: T1, p38 MAPKα isoform (MAPK14) (Homo sapiens, UniProt Q16539); experiment: p38 MAPKα enzyme inhibition (Z-LYTE FRET); type: biochemical; conditions: Table 2B, unit inferred; read-out: p38 MAPKα (Enzyme Profile)
T1 construct: purchased Life Technologies
Method in brief: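 Activity was measured indirectly as phosphorylation of a MAPKAP-K2-derived FRET peptide. Enzyme (added at 40 ng/mL) was preincubated 2 h at RT with compound (added solutions 40–0.0012 μg/mL).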

[2] = target: T2, p38MAPKγ (MAPK12) (Homo sapiens, UniProt P53778); experiment: p38 MAPKγ enzyme inhibition (Z-LYTE FRET); type: biochemical; conditions: Table 2B, unit inferred; read-out: p38 MAPKγ (Enzyme Profile)
T2 construct: purchased Life Technologies
T2 sequence (P53778 1-367): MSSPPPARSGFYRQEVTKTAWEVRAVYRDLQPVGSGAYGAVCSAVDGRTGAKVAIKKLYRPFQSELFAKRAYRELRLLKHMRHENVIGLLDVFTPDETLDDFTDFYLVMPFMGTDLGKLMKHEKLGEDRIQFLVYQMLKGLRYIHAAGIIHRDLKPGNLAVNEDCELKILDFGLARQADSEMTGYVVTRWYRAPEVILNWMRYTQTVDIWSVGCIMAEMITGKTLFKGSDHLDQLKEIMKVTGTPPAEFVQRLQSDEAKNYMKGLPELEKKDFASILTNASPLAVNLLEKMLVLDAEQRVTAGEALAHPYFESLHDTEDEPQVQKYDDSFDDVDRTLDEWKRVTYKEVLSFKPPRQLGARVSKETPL
Method in brief: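 Enzyme (added at 800 ng/mL) was preincubated 2 h at RT with compound (solutions of 40 to 0.0012 μg/mL), then FRET peptide (8 μM) and ATP (400 μM), both as added, were reacted 1 h at RT. Protease development followed for 1 h; phosphorylation was read as the coumarin/fluorescein emission ratio.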

T1 sequence (Q16539 whole entry, canonical isoform): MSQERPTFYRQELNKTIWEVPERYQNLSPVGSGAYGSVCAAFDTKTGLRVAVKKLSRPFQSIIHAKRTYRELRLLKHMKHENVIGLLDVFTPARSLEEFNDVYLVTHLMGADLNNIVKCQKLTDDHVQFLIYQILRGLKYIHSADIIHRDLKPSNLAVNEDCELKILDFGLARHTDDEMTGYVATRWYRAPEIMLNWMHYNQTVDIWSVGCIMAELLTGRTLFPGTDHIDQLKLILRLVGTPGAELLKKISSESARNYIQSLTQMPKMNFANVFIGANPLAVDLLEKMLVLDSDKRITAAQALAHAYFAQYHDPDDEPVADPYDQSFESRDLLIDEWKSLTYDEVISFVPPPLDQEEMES

SMILES: Cc1ccc(-n2nc(C(C)(C)C)cc2NC(=O)Nc2ccc(OCc3ccnc(Nc4cnc(C(=O)N5CCC(F)CC5)cn4)c3)c3ccccc23)cc1 [Example 176, 1-(3-(tert-butyl)-1-(p-tolyl)-1H-pyrazol-5-yl)-3-(4-((2-((5-(4-fluoropiperidine-1-carbonyl)pyrazin-2-yl)amino)pyridin-4-yl)methoxy)naphthalen-1-yl)urea]
- IC50 [1]: 36 nM
- IC50 [2]: 458 nM

SMILES: COc1cccc(-n2nc(C(C)(C)C)cc2NC(=O)Nc2ccc(OCc3ccnc(Nc4cnc(C)c(C)n4)c3)c3ccccc23)c1 [Example 170, 1-(3-(tert-butyl)-1-(3-methoxyphenyl)-1H-pyrazol-5-yl)-3-(4-((2-((5,6-dimethylpyrazin-2-yl)amino)pyridin-4-yl)methoxy)naphthalen-1-yl)urea]
- IC50 [1]: 35 nM
- IC50 [2]: 329 nM

SMILES: CCc1cncc(Nc2cc(COc3ccc(NC(=O)Nc4cc(C(C)(C)C)nn4-c4ccc(OC)c(C)c4)c4ccccc34)ccn2)n1 [Example 140, 1-(3-(tert-butyl)-1-(4-methoxy-3-methylphenyl)-1H-pyrazol-5-yl)-3-(4-((2-((6-ethylpyrazin-2-yl)amino)pyridin-4-yl)methoxy)naphthalen-1-yl)urea]
- IC50 [1]: 29 nM
- IC50 [2]: > 15200 nM

SMILES: Cc1ccc(-n2nc(C(C)(C)C)cc2NC(=O)Nc2ccc(OCc3ccnc(Nc4cnc5c(n4)CCC5)c3)c3ccccc23)cc1 [Example 130, 1-(3-(tert-butyl)-1-(p-tolyl)-1H-pyrazol-5-yl)-3-(4-((2-((6,7-dihydro-5H-cyclopenta [b]pyrazin-2-yl)amino)pyridin-4-yl)methoxy)naphthalen-1-yl)urea]
- IC50 [1]: 31 nM
- IC50 [2]: 2790 nM

SMILES: Cc1cccc(-n2nc(C(C)(C)C)cc2NC(=O)Nc2ccc(OCc3ccnc(Nc4cnc(CO)cn4)c3)c3ccccc23)c1 [Example 61]
- IC50 [1]: 5.6 nM
- IC50 [2]: 32 nM

SMILES: CO[C@@H]1CCN(C(=O)c2cnc(Nc3cc(COc4ccc(NC(=O)Nc5cc(C(C)(C)C)nn5-c5ccc(C)cc5)c5ccccc45)ccn3)cn2)C1 [Example 66]
- IC50 [1]: 28 nM
- IC50 [2]: 319 nM

SMILES: Cc1cccc(-n2nc(C(C)(C)C)cc2NC(=O)Nc2ccc(OCc3ccnc(Nc4cnc(C)c(C)n4)c3)c3ccccc23)c1 [Example 58]
- IC50 [1]: 18 nM
- IC50 [2]: 435 nM

SMILES: Cc1ccc(-n2nc(C(C)(C)C)cc2NC(=O)Nc2ccc(OCc3ccnc(Nc4cncc(C(C)C)n4)c3)c3ccccc23)cc1 [Example 68]
- IC50 [1]: 132 nM
- IC50 [2]: 624 nM

SMILES: CN(C)c1ccc(-n2nc(C(C)(C)C)cc2NC(=O)Nc2ccc(OCc3ccnc(Nc4cnccn4)c3)c3ccccc23)cn1 [Example 78]
- IC50 [1]: 21 nM
- IC50 [2]: 422 nM

SMILES: CCc1cncc(Nc2cc(COc3ccc(NC(=O)Nc4cc(C(C)(C)C)nn4-c4ccc(C)c(C)c4)c4ccccc34)ccn2)n1 [Example 144, 1-(3-(tert-butyl)-1-(3,4-dimethylphenyl)-1H-pyrazol-5-yl)-3-(4-((2-((6-ethylpyrazin-2-yl)amino)pyridin-4-yl)methoxy)naphthalen-1-yl)urea]
- IC50 [1]: 63 nM
- IC50 [2]: 518 nM

SMILES: Cc1ccc(-n2nc(C(C)(C)C)cc2NC(=O)Nc2ccc(OCc3ccnc(Nc4cncc(NC5CC5)n4)c3)c3ccccc23)cc1 [Example 119, 1-(3-(tert-butyl)-1-(p-tolyl)-1H-pyrazol-5-yl)-3-(4-((2-((6-(cyclopropylamino)pyrazin-2-yl)amino)pyridin-4-yl)methoxy)naphthalen-1-yl)urea]
- IC50 [1]: 13 nM
- IC50 [2]: 175 nM

SMILES: COCc1ccc(-n2nc(C(C)(C)C)cc2NC(=O)Nc2ccc(OCc3ccnc(Nc4cnccn4)c3)c3ccccc23)cc1 [Example 64]
- IC50 [1]: 9.7 nM
- IC50 [2]: 39 nM

The next lines start with the values.

- IC50 [1]: 4.7 nM
- IC50 [2]: 51 nM
SMILES: Cc1ccc(-n2nc(C(C)(C)C)cc2NC(=O)Nc2ccc(OCc3ccnc(Nc4cnc(C(=O)N5C[C@@H](O)[C@H](O)C5)cn4)c3)c3ccccc23)cc1 [Example 248, 1-(3-(tert-butyl)-1-(p-tolyl)-1H-pyrazol-5-yl)-3-(4-((2-((5-((3R,4R)-3,4-dihydroxy-pyrrolidine-1-carbonyl)pyrazin-2-yl)amino)pyridin-4-yl)methoxy)naphthalen-1-yl)urea]

- IC50 [1]: < 0.4 nM
- IC50 [2]: 138 nM
SMILES: COCc1cccc(-n2nc(C(C)(C)C)cc2NC(=O)Nc2ccc(OCc3ccnc(Nc4cnc(C(=O)N5CCN(C)CC5)cn4)c3)c3ccccc23)c1 [Example 269, 1-(3-(tert-butyl)-1-(3-(methoxymethyl)phenyl)-1H-pyrazol-5-yl)-3-(4-((2-((5-(4-methylpiperazine-1-carbonyl)pyrazin-2-yl)amino)pyridin-4-yl)methoxy)naphthalen-1-yl)urea]

- IC50 [1]: 15 nM
- IC50 [2]: 64 nM
SMILES: Cc1cc(F)cc(-n2nc(C(C)(C)C)cc2NC(=O)Nc2ccc(OCc3ccnc(Nc4cnccn4)c3)c3ccccc23)c1 [Example 181, 1-(3-(tert-butyl)-1-(3-fluoro-5-methylphenyl)-1H-pyrazol-5-yl)-3-(4-((2-(pyrazin-2-ylamino)pyridin-4-yl)methoxy)naphthalen-1-yl)urea]

- IC50 [1]: 15 nM
- IC50 [2]: 245 nM
SMILES: COCc1cnc(Nc2cc(COc3ccc(NC(=O)Nc4cc(C(C)(C)C)nn4-c4cccc(C)c4)c4ccccc34)ccn2)cn1 [Example 195, 1-(3-(tert-butyl)-1-(m-tolyl)-1H-pyrazol-5-yl)-3-(4-((2-((5-(methoxymethyl)pyrazin-2-yl)amino)pyridin-4-yl)methoxy)naphthalen-1-yl) urea]

- IC50 [1]: 65 nM
- IC50 [2]: > 14000 nM
SMILES: Cc1ccc(-n2nc(C(C)(C)C)cc2NC(=O)Nc2ccc(OCc3ccnc(Nc4cnc(C(=O)N5CCCC5)cn4)c3)c3ccccc23)cc1F [Example 235, 1-(3-(tert-butyl)-1-(3-fluoro-4-methylphenyl)-1H-pyrazol-5-yl)-3-(4-((2-((5-(pyrrolidine-1-carbonyl)pyrazin-2-yl)amino)pyridin-4-yl)methoxy)naphthalen-1-yl)urea]

- IC50 [1]: 37 nM
- IC50 [2]: > 15600 nM
SMILES: CCOc1ccc(-n2nc(C(C)(C)C)cc2NC(=O)Nc2ccc(OCc3ccnc(Nc4cnccn4)c3)c3ccccc23)cc1C [Example 197, 1-(3-(tert-butyl)-1-(4-ethoxy-3-methylphenyl)-1H-pyrazol-5-yl)-3-(4-((2-(pyrazin-2-ylamino)pyridin-4-yl)methoxy)naphthalen-1-yl)urea]

- IC50 [1]: 54 nM
- IC50 [2]: > 14000 nM
SMILES: COC1CN(C(=O)c2cnc(Nc3cc(COc4ccc(NC(=O)Nc5cc(C(C)(C)C)nn5-c5cccc(C)c5)c5ccccc45)ccn3)cn2)C1 [Example 224, 1-(3-(tert-butyl)-1-(m-tolyl)-1H-pyrazol-5-yl)-3-(4-((2-((5-(3-methoxyazetidine-1-carbonyl)pyrazin-2-yl)amino)pyridin-4-yl)methoxy)naphthalen-1-yl)urea]

- IC50 [1]: 19 nM
- IC50 [2]: 112 nM
SMILES: Cc1cc(C)cc(-n2nc(C(C)(C)C)cc2NC(=O)Nc2ccc(OCc3ccnc(Nc4cnccn4)c3)c3ccccc23)c1 [Example 180, 1-(3-(tert-butyl)-1-(3,5-dimethylphenyl)-1H-pyrazol-5-yl)-3-(4-((2-(pyrazin-2-ylamino)pyridin-4-yl)methoxy)naphthalen-1-yl) urea]

- IC50 [1]: 17 nM
- IC50 [2]: 424 nM
SMILES: COCc1ccc(-n2nc(C(C)(C)C)cc2NC(=O)Nc2ccc(OCc3ccnc(Nc4cnc(C(=O)N5CCCC5)cn4)c3)c3ccccc23)cc1 [Example 217, 1-(3-(tert-butyl)-1-(4-(methoxymethyl)phenyl)-1H-pyrazol-5-yl)-3-(4-((2-((5-(pyrrolidine-1-carbonyl)pyrazin-2-yl)amino)pyridin-4-yl)methoxy)naphthalen-1-yl)urea]

- IC50 [1]: < 0.39 nM
- IC50 [2]: 47 nM
SMILES: Cc1ccc(-n2nc(C(C)(C)C)cc2NC(=O)Nc2ccc(OCc3ccnc(Nc4cnc(C(=O)NCCN5CCN(C)CC5)cn4)c3)c3ccccc23)cc1 [Example 260, 5-((4-(((4-(3-(3-(tert-butyl)-1-(p-tolyl)-1H-pyrazol-5-yl)ureido)naphthalen-1-yl)oxy)methyl)pyridin-2-yl)amino)-N-(2-(4-methylpiperazin-1-yl)ethyl)pyrazine-2-carboxamide]

- IC50 [1]: 58 nM
- IC50 [2]: 3730 nM
SMILES: Cc1ccc(-n2nc(C(C)(C)C)cc2NC(=O)Nc2ccc(OCc3ccnc(Nc4cnc(C(=O)N5CCC(F)(F)CC5)cn4)c3)c3ccccc23)cc1 [Example 246, 1-(3-(tert-butyl)-1-(p-tolyl)-1H-pyrazol-5-yl)-3-(4-((2-((5-(4,4-difluoropiperidine-1-carbonyl)pyrazin-2-yl)amino)pyridin-4-yl)methoxy)naphthalen-1-yl)urea]

- IC50 [1]: 28 nM
- IC50 [2]: 509 nM
SMILES: CCc1cncc(Nc2cc(COc3ccc(NC(=O)Nc4cc(C(C)(C)C)nn4-c4ccc(COC)cc4)c4ccccc34)ccn2)n1 [Example 210, 1-(3-(tert-butyl)-1-(4-(methoxymethyl)phenyl)-1H-pyrazol-5-yl)-3-(4-((2-((6-ethylpyrazin-2-yl)amino)pyridin-4-yl)methoxy)naphthalen-1-yl)urea]
